Results taken from patent publication US8388931B2, “99m Tc-labeled triphenylphosphonium derivative contrasting agents and molecular probes for early detection and imaging of breast tumors” (priority 2008, dated 2013).

Key:
[1] = Comparative study: myocardial and hepatic uptake of 99mTc-MIBI versus 99mTc-Mito10-MAG3; assay type: in vivo, rats; details: rat, in vivo
Procedure: (§1) ^99mTc-MIBI of clinical formulation was purchased from Bristol Myers Squibb. […] Dynamic images were acquired in identical fashion following 99mTc-MIBI injection.
In a comparative study, the myocardial uptake of ^99mTc-MIBI peaked at 2.70±0.4% ID/g within minutes after injection, and remained above 2.41±0.3% ID/g for at least 90 min. Comparatively, the myocardial uptake level of ^99mTc-Mito10-MAG 3 is 10, 40, and 120 fold lower than the uptake level of ^99mTc-MIBI at 3, 10 and 30 min after injection. The hepatic uptake of ^99mTc-MIBI was at 0.37±0.14% ID/g at 30 min after injection.

[2] = system: DMBA-induced breast carcinoma; assay: In vivo gamma camera imaging of DMBA-induced breast carcinoma in rats; set-up: species or system rats (female Sprague Dawley); details: longitudinal experiment, at the time of detection
Procedure: The animal protocol was approved by institutional IACUC review and followed NIH guidelines. The rat model of DMBA-induced breast carcinoma was used.
As an initial feasibility study, rats were induced with 65 mg/kg DMBA dissolved in sesame oil via a single oral gavage to the stomach. […] Static images were acquired on a GE XRT gamma camera using a high-resolution parallel-hole collimator, 512×512 matrix size, 22.5×22.5 cm field of view, 140±15 keV energy window, 100 k counts. Unexpectedly, apart from the established palpable carcinomas, additional small (millimeter size) tumors were discovered by this imaging technique in the same animals. This finding promoted a longitudinal study to investigate the early detection of neoplastic growth using ^99mTc-Mito10-MAG3.
Six 48-day-old female rats were injected with 65 mg/kg DMBA. At each week after DMBA induction, the rats were imaged using the following protocol. Each rat was anesthetized with 1.6% isoflurane in room air supplemented with oxygen. […] Dynamic images were continuously acquired at one frame per min for 90 min using the imaging parameters set forth hereinabove. The weekly imaging regiment was continued for all six rats until palpable tumors became detectable, which typically takes place between seven to nine weeks after the administration of DMBA. Due to the relatively short physical half-life of ^99mTc (6 hr), no residual signal, therefore, no cross-contamination is detectable from the previous injection the week before.
as §1
The female Sprague Dawley rats have six pairs of mammary glands, among which glands a and b are away from the hepatic/gastrointestinal region. (FIG. 9, Panel A). Since the typical biodistribution of a lipophilic radiopharmaceutical in the abdominal region precludes reliable imaging of breast tissues below the diaphragm, mammary glands shown in Panels C, D, E and F were excluded from the data analysis. This exclusion also was based on the fact that such spatial distribution of mammary glands is irrelevant to that of the human anatomy.
Imaging data analysis was carried out using an inbuilt software, by carefully drawing a region of interest (ROI) on the tumor site to determine the radioactivity counts in the ROI. […] Radioactivity counts were determined in each ROI. Tumor-to-normal and tumor-to-muscle ratios were calculated as the count ratio between the two ROIs.
The rats were sacrificed by CO2 asphyxiation and the number and location of the mammary tumors were recorded at necropsy. The tumors were dissected, with the diameter and weight measured and documented. […]

peak myocardial uptake [1]: 2.70±0.4 % ID/g
Compound: [99Tc].[C-]#[N+]CC(C)(C)OC.[C-]#[N+]CC(C)(C)OC.[C-]#[N+]CC(C)(C)OC.[C-]#[N+]CC(C)(C)OC.[C-]#[N+]CC(C)(C)OC.[C-]#[N+]CC(C)(C)OC [^99mTc-MIBI, ^99mTc-methoxyisobutylisonitrile, reference compound]
tumor-to-normal ratio ([2]; ROI count ratio tumor vs contralateral normal mammary gland): 2.04±0.49
tumor-to-muscle ratio ([2]; ROI count ratio tumor vs thigh muscle): 5.10±0.31
